Test results: patent US11542259B2, “Compounds for the treatment of kinase-dependent disorders” (Exelixis, Inc., priority 2018, dated 2023)

How the values were obtained:
Format in all cases: cell-based
Mer = Mer (Homo sapiens (Human), UniProt Q12866); assay: Mer autophosphorylation ELISA in transient transfected 293A cells; settings: cellular, MERTK transfected 293A cells
Experimental: 293A cells (Thermo Fisher #R70507) were seeded at 1.5×10^6 cells/well onto 100 mm dish (Greiner #664169), in DMEM (Thermo Fisher #11995-040) containing 10% FBS (Thermo Fisher #26140-079), 1% MEM NEAA (Thermo Fisher #11140-050), 1% GlutaMax (Thermo Fisher #35050-061), and 1% Penicillin Streptomycin (Thermo Fisher #15140-122). 293A cells were incubated at 37° C., 5% CO2 for 24 h and then transfected with 6 μg MERTK DNA (Genecopoeia #EX-Z8208-M02) using TransIT LT1 transfection reagent (Mirus-Bio #MIR2305). After 24 h incubation, the transfected 293A cells were seeded at 1×10^5 cells/well onto 96-well plates (Corning #3904) in DMEM growth medium overnight. Test compounds were serially diluted to produce an 8-point dose curve in fresh serum-free medium to a final concentration of 0.3% DMSO (vehicle) and added to the cells and incubated for 1 h. Cells were then immediately lysed with 150 μL of cold 1× lysis buffer [20 mM Tris, 137 mM sodium chloride, 2 mM EDTA, 10% glycerol, 1% NP-40 alternative, 1 mM activated sodium orthovanadate, 1 mM PefaBloc SC (Sigma-Aldrich #11429868001), protease/phosphatase inhibitor tablet (Thermo Fisher #A32959)]. Lysates were clarified by centrifugation and 50 μL/well added into the human phospho-Mer DuoSet IC ELISA (R&D Systems #DYC2579-2). Assay was performed according to manufacturer's instructions and sample phospho-Mer concentrations were extrapolated using human phospho-Mer control (R&D Systems #841793) as a standard. Positive control wells (100% activity) contained DMSO-treated cell lysates. Negative control wells (0% activity) contained reference inhibitor-treated cell lysates. IC50 values were calculated by nonlinear regression analysis using a 4-parameter logistic curve fit in ActivityBase XE (IDBS).

KDR = KDR (Homo sapiens (Human), UniProt P35968); assay: KDR autophosphorylation ELISA in HUVEC cells; settings: cellular, VEGF165 stimulated
Sequence of KDR (P35968 20-1356): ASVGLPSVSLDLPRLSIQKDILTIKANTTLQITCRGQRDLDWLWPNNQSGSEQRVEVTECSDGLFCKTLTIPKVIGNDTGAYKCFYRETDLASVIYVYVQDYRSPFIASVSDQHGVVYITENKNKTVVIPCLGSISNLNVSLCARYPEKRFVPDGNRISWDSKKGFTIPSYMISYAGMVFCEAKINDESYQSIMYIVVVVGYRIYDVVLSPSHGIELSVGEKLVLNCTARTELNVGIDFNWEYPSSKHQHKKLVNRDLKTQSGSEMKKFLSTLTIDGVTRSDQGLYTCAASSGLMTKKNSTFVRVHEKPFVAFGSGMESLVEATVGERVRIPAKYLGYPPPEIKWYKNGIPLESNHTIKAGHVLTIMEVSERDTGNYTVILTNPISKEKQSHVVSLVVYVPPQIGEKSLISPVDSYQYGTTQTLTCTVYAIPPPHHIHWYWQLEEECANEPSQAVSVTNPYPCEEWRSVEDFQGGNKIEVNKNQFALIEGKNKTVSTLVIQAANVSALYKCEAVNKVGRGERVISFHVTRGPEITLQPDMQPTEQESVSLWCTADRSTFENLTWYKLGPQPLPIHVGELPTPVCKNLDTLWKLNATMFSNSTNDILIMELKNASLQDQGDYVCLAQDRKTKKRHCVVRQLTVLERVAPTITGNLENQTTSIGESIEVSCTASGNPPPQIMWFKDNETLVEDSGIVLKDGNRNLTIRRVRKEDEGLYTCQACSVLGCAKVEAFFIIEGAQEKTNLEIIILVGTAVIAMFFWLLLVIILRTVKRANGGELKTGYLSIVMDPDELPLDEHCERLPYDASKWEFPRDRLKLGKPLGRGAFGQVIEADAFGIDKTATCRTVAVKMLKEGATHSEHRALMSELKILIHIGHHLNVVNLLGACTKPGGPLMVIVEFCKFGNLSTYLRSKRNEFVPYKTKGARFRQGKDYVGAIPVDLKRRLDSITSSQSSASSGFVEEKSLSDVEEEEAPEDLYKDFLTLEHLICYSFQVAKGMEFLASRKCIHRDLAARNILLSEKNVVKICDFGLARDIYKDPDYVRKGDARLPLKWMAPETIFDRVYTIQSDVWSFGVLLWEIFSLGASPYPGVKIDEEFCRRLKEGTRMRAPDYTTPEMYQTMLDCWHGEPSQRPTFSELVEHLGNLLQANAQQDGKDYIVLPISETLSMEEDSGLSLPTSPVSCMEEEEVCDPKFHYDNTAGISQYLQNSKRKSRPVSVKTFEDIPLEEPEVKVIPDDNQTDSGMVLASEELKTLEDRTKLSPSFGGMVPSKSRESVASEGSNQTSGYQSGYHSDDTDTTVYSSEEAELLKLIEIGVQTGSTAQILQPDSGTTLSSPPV
How it was run: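 Phospho-KDR levels in lysates were measured by ELISA and referenced to stimulated-vehicle (100%) and unstimulated (0%) wells, IC50 from 4-parameter logistic fit. HUVEC, starved 24 h in serum-free medium, received an 8-point compound series (0.3% DMSO) for 1 h before a 5 min 100 ng/mL VEGF165 challenge.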

AXL = AXL (Homo sapiens (Human), UniProt P30530); assay: AXL autophosphorylation ELISA in A-172 cells; settings: cellular, Gas6 stimulated
Sequence of AXL (P30530 26-894): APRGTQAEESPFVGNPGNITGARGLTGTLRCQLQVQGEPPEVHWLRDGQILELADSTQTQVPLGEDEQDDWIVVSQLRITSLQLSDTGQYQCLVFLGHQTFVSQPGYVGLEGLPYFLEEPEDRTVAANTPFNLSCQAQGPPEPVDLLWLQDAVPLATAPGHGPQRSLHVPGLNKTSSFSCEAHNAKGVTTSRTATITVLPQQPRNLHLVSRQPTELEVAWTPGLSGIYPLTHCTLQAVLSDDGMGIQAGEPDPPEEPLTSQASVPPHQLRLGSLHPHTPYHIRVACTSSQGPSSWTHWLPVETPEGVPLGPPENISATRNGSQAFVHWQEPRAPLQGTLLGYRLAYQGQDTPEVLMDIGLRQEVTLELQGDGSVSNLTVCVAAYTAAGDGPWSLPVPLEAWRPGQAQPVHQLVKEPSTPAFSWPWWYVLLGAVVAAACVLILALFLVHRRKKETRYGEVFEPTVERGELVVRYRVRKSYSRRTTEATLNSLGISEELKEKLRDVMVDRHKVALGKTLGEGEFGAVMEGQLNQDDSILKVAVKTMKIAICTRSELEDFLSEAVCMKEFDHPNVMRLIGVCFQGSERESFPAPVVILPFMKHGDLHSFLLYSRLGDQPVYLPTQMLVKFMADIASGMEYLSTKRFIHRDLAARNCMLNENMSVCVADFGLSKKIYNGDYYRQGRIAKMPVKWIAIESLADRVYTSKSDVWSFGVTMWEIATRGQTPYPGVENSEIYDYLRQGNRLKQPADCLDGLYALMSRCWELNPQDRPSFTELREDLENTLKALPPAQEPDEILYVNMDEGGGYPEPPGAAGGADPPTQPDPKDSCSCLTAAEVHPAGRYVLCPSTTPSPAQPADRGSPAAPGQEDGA
How it was run: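 Serum-starved (24 h) A-172 glioblastoma cells pretreated 1 h with compounds (8-point curve, 0.3% DMSO), then stimulated 15 min with 1 μg/mL Gas6. Lysate phospho-AXL measured by sandwich ELISA against a phospho-AXL standard; IC50 from 4-parameter logistic fit between DMSO and reference-inhibitor controls.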

Met = Met (Homo sapiens (Human), UniProt P08581); assay: Met autophosphorylation ELISA in PC-3 cells; settings: cellular, HGF stimulated, read-out: c-Met IC50
Sequence of Met (P08581 25-1390): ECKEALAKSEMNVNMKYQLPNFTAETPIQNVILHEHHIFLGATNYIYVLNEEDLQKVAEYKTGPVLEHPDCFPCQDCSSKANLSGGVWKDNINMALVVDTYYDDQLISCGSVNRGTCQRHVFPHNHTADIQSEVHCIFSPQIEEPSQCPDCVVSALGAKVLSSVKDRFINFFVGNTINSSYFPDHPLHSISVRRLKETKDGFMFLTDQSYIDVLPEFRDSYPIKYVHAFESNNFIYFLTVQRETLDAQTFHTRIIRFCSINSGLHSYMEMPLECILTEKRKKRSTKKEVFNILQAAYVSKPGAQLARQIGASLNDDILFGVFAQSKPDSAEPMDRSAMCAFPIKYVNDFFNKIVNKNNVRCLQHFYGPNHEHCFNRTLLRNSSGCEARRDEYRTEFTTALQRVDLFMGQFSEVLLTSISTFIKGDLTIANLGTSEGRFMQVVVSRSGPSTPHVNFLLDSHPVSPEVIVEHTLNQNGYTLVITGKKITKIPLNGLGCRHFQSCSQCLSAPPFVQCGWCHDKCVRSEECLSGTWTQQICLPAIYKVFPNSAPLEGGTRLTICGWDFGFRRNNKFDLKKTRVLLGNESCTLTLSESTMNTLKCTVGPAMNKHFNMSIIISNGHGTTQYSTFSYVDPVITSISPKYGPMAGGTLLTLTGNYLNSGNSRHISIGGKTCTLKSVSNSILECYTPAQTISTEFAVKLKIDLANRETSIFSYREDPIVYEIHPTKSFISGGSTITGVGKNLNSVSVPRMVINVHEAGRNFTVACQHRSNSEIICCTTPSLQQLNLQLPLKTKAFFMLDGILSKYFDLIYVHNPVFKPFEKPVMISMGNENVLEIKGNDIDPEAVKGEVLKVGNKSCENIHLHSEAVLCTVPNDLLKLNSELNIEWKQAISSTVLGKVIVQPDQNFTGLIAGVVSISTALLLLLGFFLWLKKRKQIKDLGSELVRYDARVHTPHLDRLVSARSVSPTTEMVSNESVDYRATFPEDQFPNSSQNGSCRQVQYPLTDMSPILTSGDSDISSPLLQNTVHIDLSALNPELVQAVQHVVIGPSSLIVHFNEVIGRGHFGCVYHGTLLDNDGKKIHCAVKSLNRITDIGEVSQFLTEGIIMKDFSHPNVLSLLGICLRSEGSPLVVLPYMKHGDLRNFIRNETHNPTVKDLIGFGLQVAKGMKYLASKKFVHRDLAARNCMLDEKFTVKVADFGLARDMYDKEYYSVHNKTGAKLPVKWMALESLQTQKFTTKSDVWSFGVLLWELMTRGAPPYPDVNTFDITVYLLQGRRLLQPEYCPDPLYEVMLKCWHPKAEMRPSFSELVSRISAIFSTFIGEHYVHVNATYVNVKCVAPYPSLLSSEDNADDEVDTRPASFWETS
How it was run: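 PC-3 cells serum-starved 3 h, treated 1 h with 8-point compound series (0.3% DMSO), then stimulated with 100 ng/mL human HGF for 10 min. Lysate phospho-Met (panTyr) measured by sandwich ELISA; IC50 from 4-parameter logistic fit against DMSO and reference-inhibitor controls.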

Sequence of Mer (Q12866 21-999): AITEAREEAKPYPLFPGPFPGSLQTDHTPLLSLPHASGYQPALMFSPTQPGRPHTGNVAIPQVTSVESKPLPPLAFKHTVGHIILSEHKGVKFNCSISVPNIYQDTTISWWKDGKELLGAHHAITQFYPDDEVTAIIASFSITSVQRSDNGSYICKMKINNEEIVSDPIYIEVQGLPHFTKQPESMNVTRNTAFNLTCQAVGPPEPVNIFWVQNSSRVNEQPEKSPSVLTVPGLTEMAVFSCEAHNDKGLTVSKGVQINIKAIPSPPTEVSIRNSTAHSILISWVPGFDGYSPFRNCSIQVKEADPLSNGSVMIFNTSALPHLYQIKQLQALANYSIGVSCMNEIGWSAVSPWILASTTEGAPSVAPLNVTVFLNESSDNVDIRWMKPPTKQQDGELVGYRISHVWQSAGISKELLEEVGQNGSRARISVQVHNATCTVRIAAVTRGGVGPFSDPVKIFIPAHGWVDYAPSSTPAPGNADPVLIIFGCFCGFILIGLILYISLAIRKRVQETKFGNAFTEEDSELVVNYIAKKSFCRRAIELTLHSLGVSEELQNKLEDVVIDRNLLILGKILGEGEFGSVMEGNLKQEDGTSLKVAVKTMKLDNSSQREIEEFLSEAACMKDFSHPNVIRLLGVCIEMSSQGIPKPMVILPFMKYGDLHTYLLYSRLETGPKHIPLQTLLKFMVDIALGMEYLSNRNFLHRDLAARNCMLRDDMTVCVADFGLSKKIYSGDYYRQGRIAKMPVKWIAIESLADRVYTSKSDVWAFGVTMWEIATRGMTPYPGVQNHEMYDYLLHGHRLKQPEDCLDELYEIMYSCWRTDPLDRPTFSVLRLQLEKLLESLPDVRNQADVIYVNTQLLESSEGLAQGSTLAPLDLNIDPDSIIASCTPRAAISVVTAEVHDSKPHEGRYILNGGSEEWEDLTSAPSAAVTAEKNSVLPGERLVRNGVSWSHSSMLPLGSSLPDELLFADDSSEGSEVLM

With `NC(=O)c1cc2c(Oc3ccc(NC(=O)C4(C(=O)Nc5ccc(F)cc5)CC4)cc3)ccnc2cc1NCCCN1CCOCC1` [Compound 71, 1-N-[4-[6-Carbamoyl-7-(3-morpholin-4-ylpropylamino)quinolin-4-yl]oxyphenyl]-1-N′-(4-fluorophenyl)cyclopropane-1,1-dicarboxamide] the IC50 (Mer) was 10 to 100 nM, the IC50 (KDR) was 10 to 100 nM and the IC50 (AXL) was 10 to 100 nM. The IC50 (Met) was 10 to 100 nM.

With `CCC1NC(=O)c2cc3c(Oc4ccc(NC(=O)C5(C(=O)Nc6ccc(F)cc6)CC5)cc4)ccnc3cc2O1` (stereo not shown) [Compound 96, 1-N-[4-[(2-Ethyl-4-oxo-2,3-dihydropyrido[3,2-g][1,3]benzoxazin-6-yl)oxy]phenyl]-1-N′-(4-fluorophenyl)cyclopropane-1,1-dicarboxamide] the IC50 (Mer) was 10 to 100 nM, the IC50 (KDR) was 100 to 300 nM and the IC50 (AXL) was 10 to 100 nM. It also gave an IC50 (Met) of 100 to 300 nM.

For `CNC(=O)c1cc2c(Oc3ccc(NC(=O)C4(C(=O)Nc5ccc(F)cc5)CC4)cc3)ccnc2cc1OCCO` [Compound 110, 1-N′-(4-Fluorophenyl)-1-N-[4-[7-(2-hydroxyethoxy)-6-(methylcarbamoyl)quinolin-4-yl]oxyphenyl]cyclopropane-1,1-dicarboxamide], the IC50 (Mer) was 10 to 100 nM, the IC50 (KDR) was at most 10 nM and the IC50 (AXL) was at most 10 nM. For the same compound, the IC50 (Met) was at most 10 nM.

Compound `CC(O)COc1cc2nccc(Oc3ccc(NC(=O)C4(C(=O)Nc5ccc(F)cc5)CC4)cc3)c2cc1C(N)=O` (stereo not shown) [Compound 115, 1-N-[4-[6-Carbamoyl-7-(2-hydroxypropoxy)quinolin-4-yl]oxyphenyl]-1-N′-(4-fluorophenyl)cyclopropane-1,1-dicarboxamide] has an IC50 (Mer) of 10 to 100 nM, an IC50 (KDR) of at most 10 nM and an IC50 (AXL) of at most 10 nM. It also gave an IC50 (Met) of 10 to 100 nM.

`CNC(=O)c1cc2c(Oc3ccc(NC(=O)C4(C(=O)Nc5ccc(F)cc5)CC4)cc3)ccnc2cc1OCC(C)O` (stereo not shown) [Compound 116, 1-N′-(4-Fluorophenyl)-1-N-[4-[7-(2-hydroxypropoxy)-6-(methylcarbamoyl)quinolin-4-yl]oxyphenyl]cyclopropane-1,1-dicarboxamide] was tested, and the IC50 (Mer) was 10 to 100 nM, the IC50 (KDR) was at most 10 nM and the IC50 (AXL) was at most 10 nM. It also gave an IC50 (Met) of 10 to 100 nM.

Compound `CC(O)COc1cc2nccc(Oc3ccc(NC(=O)C4(C(=O)Nc5ccc(F)cc5)CC4)cc3)c2cc1-c1ncco1` (stereo not shown) [Compound 125, 1-N′-(4-Fluorophenyl)-1-N-[4-[7-(2-hydroxypropoxy)-6-(1,3-oxazol-2-yl)quinolin-4-yl]oxyphenyl]cyclopropane-1,1-dicarboxamide] has an IC50 (Mer) of at most 10 nM, an IC50 (KDR) of 10 to 100 nM and an IC50 (AXL) of at most 10 nM. It also gave an IC50 (Met) of 10 to 100 nM.

`O=C(NOC[C@H](O)CO)c1ccc2c(Oc3ccc(NC(=O)C4(C(=O)Nc5ccc(F)cc5)CC4)cc3)ccnc2c1` [Compound 169, 1-N-[4-[7-[[(2R)-2,3-Dihydroxypropoxy]carbamoyl]quinolin-4-yl]oxyphenyl]-1-N′-(4-fluorophenyl)cyclopropane-1,1-dicarboxamide] was tested, and the IC50 (Mer) was over 300 nM, the IC50 (KDR) was 100 to 300 nM and the IC50 (AXL) was 100 to 300 nM. For the same compound, the IC50 (Met) was 100 to 300 nM.

Compound `COc1cc2nccc(Oc3ccc(NC(=O)C4(C(=O)Nc5ccc(F)cc5)CC4)cc3)c2cc1-c1cnco1` [Compound 192, 1-N′-(4-Fluorophenyl)-1-N-[4-[7-methoxy-6-(1,3-oxazol-5-yl)quinolin-4-yl]oxyphenyl]cyclopropane-1,1-dicarboxamide] has an IC50 (Mer) of at most 10 nM, an IC50 (KDR) of at most 10 nM and an IC50 (AXL) of at most 10 nM. The IC50 (Met) was 10 to 100 nM.

`CNS(=O)(=O)c1cc2c(Oc3ccc(NC(=O)C4(C(=O)Nc5ccc(F)cc5)CC4)cc3)ccnc2cc1OC` [Compound 207, 1-N′-(4-Fluorophenyl)-1-N-[4-[7-methoxy-6-(methylsulfamoyl)quinolin-4-yl]oxyphenyl]cyclopropane-1,1-dicarboxamide] showed an IC50 (Mer) of 10 to 100 nM, an IC50 (KDR) of 10 to 100 nM and an IC50 (AXL) of 10 to 100 nM. The IC50 (Met) was 10 to 100 nM.

Compound `CCNS(=O)(=O)c1cc2c(Oc3ccc(NC(=O)C4(C(=O)Nc5ccc(F)cc5)CC4)cc3)ccnc2cc1OC` [Compound 208, 1-N-[4-[6-(Ethylsulfamoyl)-7-methoxyquinolin-4-yl]oxyphenyl]-1-N′-(4-fluorophenyl)cyclopropane-1,1-dicarboxamide] has an IC50 (Mer) of 10 to 100 nM, an IC50 (KDR) of 10 to 100 nM and an IC50 (AXL) of 10 to 100 nM. For the same compound, the IC50 (Met) was 10 to 100 nM.

`CONC(=O)c1ccc2c(Oc3ccc(NC(=O)C4(C(=O)Nc5ccc(F)cc5)CC4)cc3)ccnc2c1` [Compound 213, 1-N′-(4-Fluorophenyl)-1-N-[4-[7-(methoxycarbamoyl)quinolin-4-yl]oxyphenyl]cyclopropane-1,1-dicarboxamide] was tested, and the IC50 (Mer) was 10 to 100 nM, the IC50 (KDR) was 100 to 300 nM and the IC50 (AXL) was 10 to 100 nM. The IC50 (Met) was 10 to 100 nM.

Work on `CCNC(=O)c1ccc2c(Oc3ccc(NC(=O)C4(C(=O)Nc5ccc(F)cc5)CC4)cc3)ccnc2c1` [Compound 214, 1-N-[4-[7-(Ethylcarbamoyl)quinolin-4-yl]oxyphenyl]-1-N′-(4-fluorophenyl)cyclopropane-1,1-dicarboxamide] yielded an IC50 (Mer) of 10 to 100 nM, an IC50 (KDR) of 10 to 100 nM and an IC50 (AXL) of 10 to 100 nM. The IC50 (Met) was 10 to 100 nM.

`CNC(=O)c1cc2c(Oc3ccc(NC(=O)C4(C(=O)Nc5ccc(F)cc5Cl)CC4)cc3F)ccnc2cc1OC` [Compound 264, 1-N′-(2-Chloro-4-fluorophenyl)-1-N-[3-fluoro-4-[7-methoxy-6-(methylcarbamoyl)quinolin-4-yl]oxyphenyl]cyclopropane-1,1-dicarboxamide] gave an IC50 (Mer) of 10 to 100 nM, an IC50 (KDR) of 10 to 100 nM and an IC50 (AXL) of 10 to 100 nM. For the same compound, the IC50 (Met) was 10 to 100 nM.

With `CNC(=O)c1cc2c(Oc3ccc(NC(=O)C4(C(=O)Nc5ccc(F)cc5C)CC4)cc3F)ccnc2cc1OC` [Compound 265, 1-N-[3-Fluoro-4-[7-methoxy-6-(methylcarbamoyl)quinolin-4-yl]oxyphenyl]-1-N′-(4-fluoro-2-methylphenyl)cyclopropane-1,1-dicarboxamide] the IC50 (Mer) was 10 to 100 nM, the IC50 (KDR) was 10 to 100 nM and the IC50 (AXL) was at most 10 nM. The IC50 (Met) was 10 to 100 nM.

In the case of `CNC(=O)c1cc2c(Oc3ccc(NC(=O)C4(C(=O)Nc5ccc(F)cc5OC)CC4)cc3F)ccnc2cc1OC` [Compound 268, 1-N-[3-Fluoro-4-[7-methoxy-6-(methylcarbamoyl)quinolin-4-yl]oxyphenyl]-1-N′-(4-fluoro-2-methoxyphenyl)cyclopropane-1,1-dicarboxamide], the IC50 (Mer) is reported as 10 to 100 nM, the IC50 (KDR) is reported as at most 10 nM and the IC50 (AXL) is reported as at most 10 nM. It also gave an IC50 (Met) of 10 to 100 nM.

Compound `CNC(=O)c1cc2c(Oc3ccc(NC(=O)C4(C(=O)Nc5ccc(F)cc5OC(C)C)CC4)cc3F)ccnc2cc1OC` [Compound 269, 1-N-[3-Fluoro-4-[7-methoxy-6-(methylcarbamoyl)quinolin-4-yl]oxyphenyl]-1-N′-(4-fluoro-2-propan-2-yloxyphenyl)cyclopropane-1,1-dicarboxamide] has an IC50 (Mer) of 10 to 100 nM, an IC50 (KDR) of 10 to 100 nM and an IC50 (AXL) of 10 to 100 nM. The IC50 (Met) was 100 to 300 nM.

In the case of `CNC(=O)c1cc2c(Oc3ccc(NC(=O)C4(C(=O)Nc5ccc(F)cc5C5CC5)CC4)cc3F)ccnc2cc1OC` [Compound 270, 1-N′-(2-Cyclopropyl-4-fluorophenyl)-1-N-[3-fluoro-4-[7-methoxy-6-(methylcarbamoyl)quinolin-4-yl]oxyphenyl]cyclopropane-1,1-dicarboxamide], the IC50 (Mer) is reported as 10 to 100 nM, the IC50 (KDR) is reported as 10 to 100 nM and the IC50 (AXL) is reported as 10 to 100 nM. The IC50 (Met) was 10 to 100 nM.

`CNC(=O)c1cc2c(Oc3ccc(NC(=O)C4(C(=O)Nc5ccc(Cl)cc5)CC4)cc3F)ccnc2cc1OC` [Compound 274, 1-N-(4-Chlorophenyl)-1-N′-[3-fluoro-4-[7-methoxy-6-(methylcarbamoyl)quinolin-4-yl]oxyphenyl]cyclopropane-1,1-dicarboxamide] was tested, and the IC50 (Mer) was at most 10 nM, the IC50 (KDR) was at most 10 nM and the IC50 (AXL) was 10 to 100 nM. It also gave an IC50 (Met) of 10 to 100 nM.

For `CO/N=C/c1ccc2c(Oc3ccc(NC(=O)C4(C(=O)Nc5ccc(F)cc5)CC4)cc3)ccnc2c1` [Compound 278, 1-N′-(4-Fluorophenyl)-1-N-[4-[7-[(E)-methoxyiminomethyl]quinolin-4-yl]oxyphenyl]cyclopropane-1,1-dicarboxamide], the IC50 (Mer) was 100 to 300 nM, the IC50 (KDR) was 100 to 300 nM and the IC50 (AXL) was 100 to 300 nM. For the same compound, the IC50 (Met) was 100 to 300 nM.
